Patent US20210228741A1, “METHODS AND COMPOSITIONS TO STIMULATE RETINAL REGENERATION” (UNIVERSITY OF WASHINGTON, priority 2018, published 2021)

Key:
[1] = system: Ascl1 binding at STAT3 bound regions; test: Ascl1 ChIP-seq on control and STATi-treated cultured MG; assay type: cell-based, mouse; conditions: cultured P12 MG, doxycycline-induced Ascl1
Procedure: To directly assess the effect that STAT pathway activation has on Ascl1 binding at Id genes and more broadly across the genome during MG reprogramming, we performed an Ascl1 ChIP-seq on control and STATi-treated MG. Frozen stocks of MG from P12 germline-rtTA:tetO429 Ascl1 mice were thawed and cultured to confluency for 2 days in high FBS growth media. Cells were then given a low FBS media with STATi or vehicle for the remaining 4 DIV. At 3 DIV (1 day after STATi), doxycyline was administered to induce Ascl1 overexpression in the MG. Cells were then collected and fixed for ChIP-seq after 6 DIV. FASTQ files were aligned to the mm10 genome using Bowtie2 and peaks were called using MACS2. […] Both datasets contained the canonical Ascl1 E-box as the top scoring motif, as determined by HOMER, with strong central enrichment of peaks from both datasets around the Ascl1 motif. […]
Ascl1 Chromatin Immunoprecipitation-Sequencing (ChIP-Seq): P0 retinas or cultured, post-natal day 12, Müller glia (+/−Ascl1 overexpression, rtTA germline:tetO-Ascl1-ires-GFP mice ±doxycycline) were digested with papain/DNase to single cells and fixed with 0.75% formaldehyde for 10 minutes at room temperature. […] Libraries were prepared with standard Illumina adaptors and sequenced to an approximate depth of 36 million reads each. Sequence reads (36 bp) were mapped to the mouse mm9 genome using bwa (v 0.7.12-r1039). […]

[2] = system: WT retinas; conditions: mouse, in vivo
Text: A) Experimental paradigm for analyzing STAT3 phosphorylation by western blot in MG. P11 retinas were dissociated and grown in a growth media containing mEGF for 7 DIV. MG were passaged to eliminate residual neurons and cultured in a media containing doxycycline to induce Ascl1 expression for 6 DIV. […] B) Representative images from confluent cultures of non-treated, DOX-treated, and DOX+STATi-treated MG just before harvesting. C) Representative western blot for pSTAT3 (Y705), STAT3, and Beta-actin on non-treated, Dox-treated, and Dox+STATi-treated MG cultures. […] Scale bars for B and E are 25 and 40 μm, respectively.
Immunohistochemistry (IHC): Upon euthanasia of adult mice, eyes were removed and comeas dissected away. Globes were then fixed for 1 hour in 4% PFA in PBS followed by an overnight incubation in 30% sucrose in PBS at 4° C. Fixed eyes were then frozen in O.T.C. (Sakura Finetek) at −80° C. until sectioned. Frozen eyes were sectioned on a cryostat (Leica) at 16-18 μm thick and were stored at −20° C. until staining. All washes were 3 times 20 minutes in PBS on a rotating plate at room temperature. Slides were washed then blocked in 10% normal horse serum, 0.5% Triton X-100 in PBS for a minimum of 1 hour prior to primary. All primary antibodies were diluted in blocking solution and applied to tissue for a minimum of 3 hours. […]

[3] = system: Ascl1-reporter Müller glia; test: miRNA mimic/antagomiR transfection of P11 MG cultures from Ascl1-CreER:tdTomato reporter mice; assay type: cell-based, mouse
Text: To test whether miRNAs regulate the neurogenic competence of MG, we used primary dissociated cell cultures, since this method has proven effective for identifying reprogramming factors that are effective both in vitro and in vivo (Jorstad et al., 2017; Pollak et al., 2013; Ueki et al., 2015). We hypothesized that miRNAs highly expressed in RPCs may be important in establishing and maintaining the RPC gene expression pattern. One prediction of this hypothesis is that over-expression of the RPC-miRNAs in MG would cause the MG to adopt a progenitor-like gene expression profile. […]
MG cultures from P11 Ascl1-CreER:tdTomatoflSTOP/flSTOP mice were transfected with either a cocktail of all four RPC-miR mimics, or each miRNA mimic individually (FIG. 10B). We added 4-Hydroxy-tamoxifen to the cultures to activate the cre-recombinase and monitored the cells for tdTomato expression. […]
Müller glia were dissociated (see above) from postnatal day (P) 11/12 mice and adult (one month, 2, and 4 months) and grown in Neurobasal medium supplemented with N-2, tetracycline-free 10% fetal bovine serum (FBS, Clontech), and epidermal growth factor (EGF, R&D Systems, 100 ng/mL) as described previously (Ueki et al., 2012). […] EdU was added either with the onset of culturing to track cell proliferation of MG lineage or after transfection to quantify cell proliferation due to the treatment. […]

Molecule | Ascl1 binding (ChIP-seq peaks) at STAT3 bound regions near Id1 and Id3 [1] | toxicity (TUNEL staining) [2] | Ascl1:tdTomato+ cells (Ascl1-reporter expression) ([3]; P11 MG cultures, days post-transfection vs control) | conversion of MG into a neuronal/RPC phenotype ([3]; young (P11) MG in vitro, summary statement)
CN(CC(=O)N(Cc1ccc(C2CCCCC2)cc1)c1ccc(C(=O)O)cc1)S(=O)(=O)c1c(F)c(F)c(F)c(F)c1F [SH-4-54] | Decreased Ascl1 binding | not found to be toxic |  | 
miR-25: miR-25 mimic, CAUUGCACUUGUCUCGGUCUGA (SEQ ID NO: 22); double-stranded, preprocessed miRNA (double-stranded mimic, other strand not given here) |  |  | significant increase | approximately 40%
